Test results as given in patent US7101878B1 (Agouron Pharmaceuticals, Inc., priority 1998, dated 2006).
Like-named read-outs stand apart in the source and are kept apart here.

Legend:
human GnRH receptor = molecular target: T1, human GnRH receptor (Homo sapiens, UniProt P30968); assay: Radioligand binding, 125I-GnRH-A displacement, membranes of HEK 293 cells with human GnRH receptor
T1 construct: expressed in transfected cells; host or cells: HEK 293 (hGnRH-R/293, from Dr. Stuart Sealfon)
T1 sequence (P30968 1-328): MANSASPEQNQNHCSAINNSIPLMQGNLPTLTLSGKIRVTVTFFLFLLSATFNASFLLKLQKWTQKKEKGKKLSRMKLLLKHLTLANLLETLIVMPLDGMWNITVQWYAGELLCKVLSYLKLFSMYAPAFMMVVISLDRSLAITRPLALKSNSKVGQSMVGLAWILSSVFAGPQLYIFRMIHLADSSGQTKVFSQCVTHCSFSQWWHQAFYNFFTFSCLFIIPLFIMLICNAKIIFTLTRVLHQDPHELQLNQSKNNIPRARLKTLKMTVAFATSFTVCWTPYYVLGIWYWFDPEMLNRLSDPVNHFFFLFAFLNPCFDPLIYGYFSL
Procedure, shortened: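 Bound tracer was separated by filtration through polyethyleneimine-soaked GF/C filters and counted by liquid scintillation. IC50 from curve fitting; other species were tested under the same conditions.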

mouse GnRH receptor = molecular target: T2, mouse GnRH receptor (Mus musculus, UniProt Q01776); assay: Radioligand binding, 125I-GnRH-A, 293 cells expressing mouse GnRH receptors
T2 construct: expressed in transfected cells; host or cells: 293 cells
T2 sequence (Q01776 1-327): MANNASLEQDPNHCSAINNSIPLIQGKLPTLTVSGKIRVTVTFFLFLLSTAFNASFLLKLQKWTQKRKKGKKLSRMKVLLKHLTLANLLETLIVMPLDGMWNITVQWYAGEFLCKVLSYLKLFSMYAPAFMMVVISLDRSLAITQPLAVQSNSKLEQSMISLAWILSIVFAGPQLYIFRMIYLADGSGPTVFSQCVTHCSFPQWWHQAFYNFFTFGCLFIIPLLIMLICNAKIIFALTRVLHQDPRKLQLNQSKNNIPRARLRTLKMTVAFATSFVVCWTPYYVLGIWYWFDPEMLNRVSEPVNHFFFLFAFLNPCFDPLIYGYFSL
Procedure, shortened: (§1)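 Bound label captured on 0.1% polyethyleneimine-treated GF/C filters, washed three times with PBS, counted. IC50 derived; identical set-up for every species.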

rat GnRH receptor = molecular target: T3, rat GnRH receptor (Rattus norvegicus, UniProt P30969); assay: Radioligand binding, 125I-GnRH-A, rat pituitary membranes; parameters: membranes were prepared from rat pituitary; from tissue; host or cells: rat pituitary
T3 sequence (P30969 1-327): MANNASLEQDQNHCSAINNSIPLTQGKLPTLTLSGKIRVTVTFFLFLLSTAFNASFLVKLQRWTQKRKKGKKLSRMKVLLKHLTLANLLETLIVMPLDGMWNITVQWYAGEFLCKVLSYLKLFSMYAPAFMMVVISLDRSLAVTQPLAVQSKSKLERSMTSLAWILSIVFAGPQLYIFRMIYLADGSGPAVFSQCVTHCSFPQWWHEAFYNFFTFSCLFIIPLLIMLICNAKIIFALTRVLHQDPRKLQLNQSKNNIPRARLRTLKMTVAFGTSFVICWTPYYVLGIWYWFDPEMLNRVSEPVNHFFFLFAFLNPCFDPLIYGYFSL
Procedure, shortened: as §1

bovine GnRH receptor = molecular target: T4, bovine GnRH receptor (Bos taurus, UniProt P32236); assay: Radioligand binding, 125I-GnRH-A, bovine pituitary membranes
T4 construct: membranes were prepared from bovine pituitary; from tissue; host or cells: bovine pituitary
T4 sequence (P32236 1-328): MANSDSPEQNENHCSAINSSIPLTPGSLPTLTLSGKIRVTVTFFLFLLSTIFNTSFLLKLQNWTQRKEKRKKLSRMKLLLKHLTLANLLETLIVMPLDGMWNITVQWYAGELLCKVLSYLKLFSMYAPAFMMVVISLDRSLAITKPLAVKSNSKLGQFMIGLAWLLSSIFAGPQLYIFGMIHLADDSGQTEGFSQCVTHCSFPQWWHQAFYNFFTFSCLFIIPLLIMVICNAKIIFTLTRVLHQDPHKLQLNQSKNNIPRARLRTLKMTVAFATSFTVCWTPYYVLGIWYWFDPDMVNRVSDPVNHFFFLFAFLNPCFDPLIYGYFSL
Method: All compounds were diluted in 1% DMSO (final assay concentration) in binding assay buffer. […] Reactions were terminated by rapid filtration onto 96-well Packard GF/C filters soaked in 0.1% polyethyleneimine. Filters were washed three times with PBS buffer, dried and counted on a Packard Topcount by liquid scintillation counting.
Assay conditions were identical for assessing compound activities at other species. […] IC50 values for control peptides and test compounds were calculated utilizing GraphPad Prism™ software.
The reaction mixture was vortexed and incubated for 1 min at room temperature. After one min, the mixture was vortexed and allowed to incubate for an additional minute. 2 ml of 0.5 M acetic acid/1% BSA was added to the reaction tube and the mixture was added to a C18 Sep-Pak cartridge. The cartridge was washed with subsequent washes of 5 ml H2O and 5 ml 0.5M acetic acid and then eluted with 5×1 ml of 60% CH3CN/40% 0.5M acetic acid. The eluate was diluted with 3× volume of HPLC buffer A (0.1% TFA in H2O) and loaded onto a C18 column. […] The radioactive fractions (750 ed/fraction) are collected into clean polypropylene tubes containing 100 μl of 10% BSA. Fractions were assessed for biological activity by radioligand binding.

hGnRH receptor = molecular target: T5, hGnRH receptor (Homo sapiens, UniProt P30968); assay: Total inositol phosphates measurement, 293 cells containing the hGnRH receptor; format: cell-based; details: for GnRH functional: no species or readout annotated
T5 construct: expressed in transfected cells; host or cells: HEK 293 (hGnRH-R/293, from Dr. Stuart Sealfon)
T5 sequence (P30968 1-328): T1 sequence (P30968 1-328)
Method: To assess the activity of the compounds as agonists or antagonists, an assay measuring accumulation of total inositol phosphates was employed. 293 cells containing the hGnRH receptor were plated onto 24-well plates (approximately 200,000 cells/well) using DMEM media. […] The medium was aspirated and the cells rinsed with serum-free DMEM. The medium was aspirated and the cells were then treated with test compounds or vehicle for 30 minutes at 37° C. […] The media was replaced with ice-cold 10 mM formic acid, which stopped the reaction and also served to extract cellular lipids. Inositol phosphates were separated by ion-exchange chromatography on Dowex columns, which were washed with 2.5 mL of 10 mM myoinositol and 10 mM formic acid. The columns were then washed with 5 mL of 60 mM sodium formate and […], and total inositol phosphates were eluted with 5 mL 1M ammonium formate, 0.1 M formic acid. The column eluates were added to liquid scintillation vials containing 15 ml of scintillation cocktail and were counted by liquid scintillation counting.
This cell line was provided by Dr. Stuart Sealfon, Mount Sinai Medical School New York, N.Y. These cells were grown in DMEM supplemented with 0.2 g/L G418 100 U/ml penicillin/streptomycin and 10% FBS. Both GGH3 and hGnRH-R/293 cells were utilized for both for both total inositol phosphate measurement and for microphysiometry assessment of compound efficacy.

[1] = Metabolism rate, pmol/min/mg at 1 μM, rat female; format: in vitro ADME; details: 1 μM compound
[2] = Metabolism rate, pmol/min/mg at 1 μM, rat male; format: in vitro ADME; details: 1 μM compound
[3] = tested on: LH levels in castrated rats; assay: Castrated male rat model, LH suppression; format: in vivo; details: 10 mg/kg iv
Description: Experimental Protocol: Male Sprague-Dawley (225-250 g) rats were castrated and allowed 10 days postoperative recovery. Ten days post castration animals were instrumented with indwelling femoral venous and arterial catheters to facilitate remote infusions and blood sampling. On the day of the experiment, animals were allowed to acclimate to the procedure room while residing in their home cage. Basal blood samples were drawn from all animals. Following basal sampling, either vehicle (10% DMSO, 10% cremophor/saline), Antide (1.0 μg) or compound 11 (10 mg/kg) was administered intravenously. Blood samples were drawn 10, 60, 90, 120, 180, 240 minutes after injections. Blood was centrifuged, serum collected and stored in −70° freezer until assayed. Serum samples were analyzed using DSL-4600 ACTIVE LH coated-tube immunoradiometric assay kit from Diagnostic Systems Laboratories, Inc.
Surgical removal of the gonads removes circulating testosterone and eliminates the negative feedback of testosterone on the hypothalamus. […] This model seems suitable for evaluating small molecule GnRH antagonists.
Male Sprague-Dawley ([…]) rats were castrated via the scrotal approach under halothane anesthesia. Animals were allowed 14 days post operative recovery prior to study. Thirteen days following castration, animals were anesthetized with halothane and instrumented with indwelling jugular vein cannula. Details of the cannulation procedure have been described previously {Harms and Ojeda, 1974)}. On study day, animals were allowed to acclimate to the procedure room while residing in their home cage. Basal blood samples were drawn from all animals. Immediately following basal sampling, vehicle or test compounds were administered by various routes. The routes of administration employed were intravenous (iv), intramuscular (im), intraperitoneal (ip), subcutaneous (sc) and oral (po). Blood samples were drawn into heparin containing tubes at multiple time points post treatment. Blood was centrifuged immediately, plasma collected and stored in −20° freezer until assayed. Plasma samples were analyzed using DSL-4600 ACTIVE LH coated-tube immunoradiometric assay kit from Diagnostic Systems Laboratories, Inc.
Formulation #1 (denoted with superscript 1): 10% DMSO, 10% Cremophor EL and 80% physiological saline.
Formulation #2 (denoted with superscript 2): 10% Cremophor EL and 90% physiological saline.

[4] = Metabolism rate, pmol/min/mg at 1 μM, human; format: in vitro ADME; details: 1 μM compound
[5] = Pharmacokinetic studies / bioavailability in rats; format: in vivo, rat; details: for Cmax / Tmax / half-life: rat, plasma; for Cmax / Tmax: po, p.o. 10 mg/kg; for Cmax / Tmax / Fp.o.: 5 mg/ml solution in 10% DMSO 10% cremophor 80% saline
[6] = second value marked * (mostly in parentheses), asterisk not explained, read-out: hGnRH IC50, value marked *

SMILES	IC50 (human GnRH receptor; read-out: hGnRH IC50) [µM]	IC50 (mouse GnRH receptor; read-out: mGnRH IC50) [µM]	IC50 (rat GnRH receptor; read-out: rGnRH IC50) [µM]	Rat female pmol/min/mg 1 μM [1] [pmol/min/mg]	Rat male pmol/min/mg 1 μM [2] [pmol/min/mg]	Human pmol/min/mg 1 μM [4] [pmol/min/mg]	IC50 (bovine GnRH receptor; read-out: bGnRH IC50) [µM]	GnRH functional (hGnRH receptor)	Cmax ([5]; female, 10 mg/kg, rat female) [nM]	Tmax ([5]; female, 10 mg/kg, rat female) [h]	half-life ([5]; female, rat female) [h]	Fp.o. ([5]; rat female)	other results
Cc1cc2c(cc1Cc1ccc(C(=O)NCC3CCC(CNC(=N)N)CC3)o1)C(C)(C)CCC2(C)C (stereo not shown) [Compound 9]	0.22	2.3	0.68	–	–	–	–	–	–	–	–	–	IC50 (human GnRH receptor; means ± SE of at least three experiments performed in duplicate, read-out: Human IC50): 0.22 ± 0.033 µM; IC50 (human GnRH receptor; [6]): 0.04 µM; IC50 (mouse GnRH receptor; means ± SE of at least three experiments performed in duplicate, read-out: Mouse IC50): 2.3 ± 0.46 µM; IC50 (rat GnRH receptor; means ± SE of at least three experiments performed in duplicate, read-out: Rat IC50): 0.68 ± 0.12 µM; IC50 (bovine GnRH receptor; means ± SE of at least three experiments performed in duplicate, read-out: Bovine IC50): 3.8 ± 0.22 µM; Kb (hGnRH receptor): 0.03 µM
COc1cccc(OC)c1NC(=O)c1ccc(Cc2cc(C(C)(C)C)ccc2C)o1 [Compound 206]	0.052	0.083	0.023	330	1794	689	–	–	–	–	–	–	% Max LH Suppression [3]: 51%; time of % Max LH Suppression [3]: 1 h
CCOC(=O)[C@H]1CC[C@H](CNC(=O)c2ccc(Cc3cc4c(cc3C)C(C)(C)CCC4(C)C)o2)CC1 [Compound 31]	0.14	1.88	2.8	–	–	–	8.9	Antag- onist	–	–	–	–	–
COc1cccc(OC)c1NC(=O)c1ccc(Cc2c(C)c(C)c(Br)c(C)c2C)o1 [Compound 226]	0.24	0.72	2.13	173	990	369	–	–	420	1 to 5	4.6	34% (10 mg/kg)^10	–
COc1cccc(OC)c1NC(=O)c1ccc(Cc2c(C)c(C)cc(C)c2C)o1 [Compound 225]	0.174	0.85	1.51	330	2180	450	–	–	340	1	1.1	24% (10 mg/kg)^10	–
Cc1cc2c(cc1Cc1ccc(C(=O)NC[C@H]3CC[C@@H](CNC(=N)N)CC3)o1)C(C)(C)CCC2(C)C [Compound 23]	0.22	2.1	0.73	–	141	263	2.83	Antag- onist	–	–	–	–	half-life ([5]; male, iv, 10 mg/kg, rat male): 0.8 h; IC50 (human GnRH receptor; [6]): 0.04 µM
Cc1cc2c(cc1Cc1ccc(C(=O)NCC3CCCCC3)o1)C(C)(C)CCC2(C)C [Compound 36]	0.215	3.8	2.9	–	–	–	12.5	Antag- onist	–	–	–	–	–
Cc1ccc(C(C)(C)C)cc1Cc1ccc(C(=O)NCc2cccc(CNc3ccnc(NC[C@H]4CCCO4)n3)c2)o1 [Compound 212]	0.08	0.062	0.012	430	3282	322	–	–	50	1	1.6	1% (10 mg/kg)^10	–
COc1cc2c(cc1Cc1ccc(C(=O)Nc3c(OC)cc(OC)c(C#N)c3OC)o1)C(C)(C)CCC2(C)C [Compound 217]	0.029	0.011	0.021	203	953	483	–	–	100	1	3.8	16% (10 mg/kg)^10	–
